Laboratory results published in patent US20260232660A1 (TARIS Biomedical LLC, priority 2023, published 2026).
Like-named read-outs stand apart in the source and are kept apart here. Marks after values point to notes of the source that are not given here.

Key:
[1] = system: orthotopic UM-UC-1 bladder tumors; test: Continuous bladder perfusion, orthotopic UM-UC-1 bladder cancer model; type: in vivo; settings: 5 days perfusion; p<0.01 at 0.5, p<0.001 at 1.0 and 5 μg/mL nominal urine concentrations
Experimental: Perfusion studies: The bladders of the study animals were cannulated on Day 1 and the animals were allowed to recover for 3 days. On Day 5, UM-UC-1 cells (2×10^6 cells) were injected into the lateral wall of each bladder. […] Based on the in vitro results, target urine concentrations of 0.5, 1.0, and 5.0 μg/mL were used in the perfusion experiments. Body weight, daily urine production, and daily water consumption were recorded. At necropsy, a plasma sample, bladder photographs, and bladder weight measurements were recorded.
The percent reduction in relative tumor weight between the control group and the drug perfusion groups was determined as an initial measure of efficacy.

[2] = in vivo; settings: female, Domestic Yorkshire Crossbred, pig, urine, other: continuous intravesical infusion, 0.22 mg/kg/day
Excerpt: On Day ~7 a catheter was surgically placed in the bladder of each animal. The distal end of the catheter was anchored to a subcutaneous site and attached to a vascular access port (VAP). The port was secured, and the animals were allowed to recover. Each animal was subsequently fitted with a portable infusion pump that was attached to the bladder catheter via the VAP. […] All excreted urine was collected in 24-hour intervals through Day 6 or 8. Blood samples were collected daily on study Days 1 to 8. Bladder tissue samples were collected from each animal at necropsy.

[3] = rat, in vivo
Excerpt: Rat bladders (5 groups of rats, n=3/group) were surgically catheterized under anesthesia and the catheter was externalized, tunneled subcutaneously, and connected to a vascular access harness (VAH) in the neck. Rats were transferred to individual metabolic cages with free access to food and water during the 1-week post-surgery recovery period. […] Plasma and bladder samples were collected at all time points.

[4] = system: orthotopic RT-112 bladder tumor
[5] = first 6 hours
Experimental: Solution formulations were prepared at various strengths in order to administer 0.5 mL volume to each rat bladder to dose 2, 6, and 18 mg/kg. Corresponding doses in nominal amount of drug were 0.5, 1.5, and 4.5 mg, respectively. After 1 hour of post-installation, rats were transferred to metabolic cages for collection of samples for PK determination. […] At each blood sampling time point, bladder samples were taken from each rat for drug analysis. In addition, bladders collected at 96 hours in the 18 mg/kg dose (high-dose) group were microscopically evaluated. Urine collections were limited to initial 0-6 hours post dose from all rats.

Structure (SMILES): COc1cc(OC)cc(N(CCNC(C)C)c2ccc3ncc(-c4cnn(C)c4)nc3c2)c1 [erdafitinib, N-(3,5-dimethoxyphenyl)-N′-(1-methylethyl)-N-[3-(1-methyl-1H-pyrazol-4-yl)quinoxalin-6-yl]ethane-1,2-diamine]
- Bladder weight (tumor growth) vs vehicle control [1]: significant dose-related decrease in bladder weight
- concentration at 8 day [2]: 1270 ng/mL
- C72 h ([3]; female, Sprague-Dawley, 72 h): 2,420^a ng/mL
- C96 h [3]: BQL
- C120 h [3]: BQL
- Bladder weight decrease vs vehicle control ([4]; 1.0 μg/mL perfusate concentration, p<0.05): significant bladder weight reduction
- Body weight loss, maximum mean value ([4]; erdafitinib-treated group, Day 11): up to −3%
- Percentage of compound eliminated as unchanged drug in the urine ([5]; 2 mg/kg intravesical): 23.5%
- Percentage of compound eliminated as unchanged drug in the urine ([5]; 6 mg/kg intravesical): 19%
- Percentage of compound eliminated as unchanged drug in the urine ([5]; 18 mg/kg intravesical): 50.3%
